{
  "source": "patent US9795810B2",
  "about": "“Propylene glycol/glycerin-based deodorant” (COLGATE-PALMOLIVE COMPANY, priority 2007, dated 2017)",
  "test_system": "Corynebacterium minutissimum",
  "test": "Zone of Inhibition test on inoculated agar plates",
  "type": "cell-based",
  "conditions": "for Zone of Inhibition (mm): from the edge of 2 cm disk, 0.2 g stick or approx. 0.6 g neat, 37° C., 48 hrs",
  "experimental": "A commercially available regular Mennen Speed Stick (MSS) deodorant stick, an Ultimate Mennen Speed Stick deodorant stick (containing triclosan as a control) and the PG-free deodorant stick containing glycerin were tested with a Zone Of Inhibition test using 2 cm Webril® (Fiberweb, Gray Court, S.C.) cotton disks on inoculated plates. Also, as controls: water, neat (undiluted) PG and neat glycerin were tested.\nZone of Inhibition Test method: To the disks was added 0.2 g of the stick products or approximately 0.6 g (enough to just saturate the disk) of the neat controls. The disks were then inverted and placed face down on an inoculated agar plate. The agar plates were streaked beforehand (30 minutes) such that a bacterial lawn of Corynebacterium minutissimum at a concentration of 10^6/ml was created covering the entire plate surface. The plates were then incubated at 37° C. for 48 hrs.\nZones of inhibition were measured in millimeters (mm) from the edge of the disk. A greater zone equals increased bacterial growth inhibition.",
  "data": [
    {"smiles": "OCC(O)CO", "note": "[Glycerin neat, glycerin]", "values": [
      {"measurement": "Zone of inhibition result in words", "result": "small zone"},
      {"measurement": "Zone of Inhibition (mm)", "result": 1, "unit": "mm"}
    ]},
    {"smiles": "CC(O)CO", "note": "(stereo not drawn) [PG neat, propylene glycol]", "values": [
      {"measurement": "Zone of Inhibition (mm)", "result": 2.5, "unit": "mm"}
    ]}
  ]
}
